For 28 compounds, IC50 results are on record in patent US12084437B2, “Halo-substituted piperidines as orexin receptor modulators” (AstraZeneca AB, priority 2016, dated 2024).

The IC50 is the concentration at which inhibition is half-maximal.

In assay [1] the target is T1, OX1 (Homo sapiens, UniProt O43613).
T1 construct: expressed in transfected cells; host or cells: CHO (CHO-OX1)
T1 sequence (O43613 1-425): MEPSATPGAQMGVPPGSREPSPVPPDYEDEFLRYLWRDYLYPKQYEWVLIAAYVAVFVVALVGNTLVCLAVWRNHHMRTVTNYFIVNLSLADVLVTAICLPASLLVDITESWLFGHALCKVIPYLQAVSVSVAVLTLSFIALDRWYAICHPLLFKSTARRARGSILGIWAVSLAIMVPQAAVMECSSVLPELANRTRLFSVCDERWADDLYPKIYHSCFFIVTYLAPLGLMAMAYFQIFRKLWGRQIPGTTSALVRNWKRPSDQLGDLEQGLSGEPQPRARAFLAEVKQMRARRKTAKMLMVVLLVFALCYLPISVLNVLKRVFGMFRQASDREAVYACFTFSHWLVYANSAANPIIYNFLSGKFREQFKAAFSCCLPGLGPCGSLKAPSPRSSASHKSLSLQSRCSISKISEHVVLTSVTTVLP
Put plainly: Orexin receptor cell-based functional assay, [Ca2+]i by FLIPR, CHO-OX1 cells. The settings on record: FLIPR calcium, antagonism of EC90 of [OX], read-out: OXI, IC50.

The target of assay [2] is T2, OX2 (Homo sapiens, UniProt O43614).
T2 construct: expressed in transfected cells; host or cells: CHO (CHO-OX2)
T2 sequence (O43614 1-444): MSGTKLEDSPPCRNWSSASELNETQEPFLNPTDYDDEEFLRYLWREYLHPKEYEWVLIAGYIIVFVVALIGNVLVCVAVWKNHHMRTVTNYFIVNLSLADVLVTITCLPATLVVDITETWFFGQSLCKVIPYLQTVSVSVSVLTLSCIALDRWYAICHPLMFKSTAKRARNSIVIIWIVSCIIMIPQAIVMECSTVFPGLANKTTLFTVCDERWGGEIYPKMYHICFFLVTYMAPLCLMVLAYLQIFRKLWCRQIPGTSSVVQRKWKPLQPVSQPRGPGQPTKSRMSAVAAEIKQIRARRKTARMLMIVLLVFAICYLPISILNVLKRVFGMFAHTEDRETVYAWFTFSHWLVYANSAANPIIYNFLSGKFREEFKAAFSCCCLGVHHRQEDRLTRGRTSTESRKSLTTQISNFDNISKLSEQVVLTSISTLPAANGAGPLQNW
Put plainly: Orexin receptor cell-based functional assay, [Ca2+]i by FLIPR, CHO-OX2 cells. The note with it: FLIPR calcium, antagonism of EC90 of [OX]. Put shortly: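 CHO cells expressing human OX1 or OX2 (20,000/well, grown overnight) were loaded with Calcium6 dye plus 2.5 mM probenecid for 2 h at 37 °C, then preincubated 30 min with compound (0.1 nM–10 µM). FLIPR fluorescence (ex 488/em 540 nm) was tracked before and after an EC90 orexin challenge.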

Take `Cc1ccnc(-c2sc(C)nc2C(=O)N2CC(F)(F)C[C@@H](C)[C@H]2CNc2cnc(C(F)(F)F)cn2)c1` [Compound 147]: the IC50 was 5 nM in assay [1] and > 5000 nM in assay [2].

For the compound `Cc1ccc(-c2sc(C)nc2C(=O)N2CC(F)(F)C[C@@H](C)[C@H]2CNc2cnc(C(F)(F)F)cn2)nc1` [Compound 148], the IC50 in assay [1] was 6 nM; in assay [2], > 5000 nM.

Regarding `COc1cccc(-c2sc(C)nc2C(=O)N2CC(F)(F)C[C@@H](C)[C@H]2CNc2cnc(C(F)(F)F)cn2)n1` [Compound 151], the concentration for half-maximal inhibition (IC50) in assay [1] is 11 nM; in assay [2] it was > 5000 nM.

In the case of `Cc1ccc(-n2nccn2)c(C(=O)N2CC(F)(F)C[C@@H](C)[C@H]2CNc2cnc(C(F)(F)F)cn2)n1` [Compound 153], the IC50 was 27 nM in assay [1] and > 5000 nM in assay [2].

Take `C[C@@H]1CC(F)(F)CN(C(=O)c2cc(Cl)ccc2-n2nccn2)[C@@H]1CNc1cnc(C(F)(F)F)cn1` [Compound 154]: the IC50 in assay [1] is 12 nM; in assay [2], > 5000 nM.

As to `C[C@@H]1CC(F)(F)CN(C(=O)c2nn(C)cc2-c2cccnc2)[C@@H]1CNc1cnc(C(F)(F)F)cn1` [Compound 155], the results for the IC50 in assay [1] and in assay [2] were 38 nM and > 5000 nM, respectively.

Consider `Cc1nc(C(=O)N2CC(F)(F)C[C@@H](C)[C@H]2CNc2cnc(C(F)(F)F)cn2)c(-c2cccnc2)o1` [Compound 156], for which the IC50 in assay [1] is > 1000 nM; in assay [2] it was > 5000 nM.

As for `Cc1nc(C(=O)N2CC(F)(F)C[C@@H](C)[C@H]2CNc2cnc(C(F)(F)F)cn2)c(-c2ccccc2)o1` [Compound 157], the IC50 in assay [1] was 186 nM; in assay [2], > 5000 nM.

As for `C[C@@H]1CC(F)(F)CN(C(=O)c2cn(C)nc2-c2ccccn2)[C@@H]1CNc1cnc(C(F)(F)F)cn1` [Compound 158], the IC50 is 62 nM in assay [1] and > 5000 nM in assay [2].

Turning to `C[C@@H]1CC(F)(F)CN(C(=O)c2cc(Cl)ccc2-c2nnn(C)n2)[C@@H]1CNc1cnc(C(F)(F)F)cn1` [Compound 161], the IC50 is 9 nM in assay [1] and > 5000 nM in assay [2].

Take `C[C@@H]1CC(F)(F)CN(C(=O)c2nn(C)cc2-c2ccccn2)[C@@H]1CNc1ccc(C(F)(F)F)cn1` [Compound 167]: the figures for the IC50 in assay [1] and in assay [2] were 5 nM and > 5000 nM, respectively.

As for `C[C@@H]1CC(F)(F)CN(C(=O)c2nn(C)cc2-c2ccc(F)cc2)[C@@H]1CNc1ccc(C(F)(F)F)cn1` [Compound 169], the IC50 in assay [1] is 2 nM; in assay [2] it was > 5000 nM.

Consider `Cc1ccc(-n2nccn2)c(C(=O)N2CC(F)(F)C[C@@H](C)[C@H]2CNc2ccc(C(F)(F)F)cn2)n1` [Compound 174], for which the IC50 in assay [1] is 4 nM; in assay [2] it was > 5000 nM.

On to `Cc1ccc(-c2cn(C)nc2C(=O)N2CC(F)(F)C[C@@H](C)[C@H]2CNc2ccc(C(F)(F)F)cn2)cc1` [Compound 175], for which the IC50 was determined as 4 nM in assay [1] and 4140 nM in assay [2].

As for `COc1ccc(-c2cn(C)nc2C(=O)N2CC(F)(F)C[C@@H](C)[C@H]2CNc2ccc(C(F)(F)F)cn2)cc1` [Compound 177], the IC50 in assay [1] was 6 nM; in assay [2], 170 nM.

Consider `Cc1ccc(-c2ncccn2)c(C(=O)N2CC(F)(F)C[C@@H](C)[C@H]2CNc2ccc(C(F)(F)F)cn2)n1` [Compound 183, ((2S,3R)-5,5-difluoro-3-methyl-2-(((5-(trifluoromethyl)pyridin-2-yl)amino)methyl)piperidin-1-yl)(6-methyl-3-(pyrimidin-2-yl)pyridin-2-yl)methanone], for which the IC50 in assay [1] was 12 nM; in assay [2] it was > 5000 nM.

Take `Cc1ccc(-c2sc(C)nc2C(=O)N2CC(F)(F)C[C@@H](C)[C@H]2CNc2ccc(C(F)(F)F)cn2)cc1` [Compound 186]: the values for the IC50 in assay [1] and in assay [2] were 6 nM and > 5000 nM, respectively.

With `Cc1cccc(-c2sc(C)nc2C(=O)N2CC(F)(F)C[C@@H](C)[C@H]2CNc2ccc(C(F)(F)F)cn2)c1` [Compound 187], the IC50 in assay [1] stood at 7 nM; in assay [2] it was 3000 nM.

With `C[C@@H]1CC(F)(F)CN(C(=O)c2nn(C)cc2-c2ncccn2)[C@@H]1CNc1ccc(C(F)(F)F)cn1` [Compound 200, ((2S,3R)-5,5-difluoro-3-methyl-2-(((5-(trifluoromethyl)pyridin-2-yl)amino)methyl)piperidin-1-yl)(1-methyl-4-(pyrimidin-2-yl)-1H-pyrazol-3-yl)methanone], the IC50 is 4 nM in assay [1] and > 5000 nM in assay [2].

Take `COc1ccc(-n2nccn2)c(C(=O)N2CC(F)(F)C[C@@H](C)[C@H]2CNc2ccc(C(F)(F)F)cn2)n1` [Compound 202, ((2S,3R)-5,5-difluoro-3-methyl-2-(((5-(trifluoromethyl)pyridin-2-yl)amino)methyl)piperidin-1-yl)(6-methoxy-3-(2H-1,2,3-triazol-2-yl)pyridin-2-yl)methanone]: the IC50 in assay [1] was 150 nM; in assay [2] it was > 5000 nM.

With `C[C@@H]1CC(F)(F)CN(C(=O)c2nc(C(F)(F)F)ccc2-n2nccn2)[C@@H]1CNc1ccc(C(F)(F)F)cn1` [Compound 203, (3-(2H-1,2,3-triazol-2-yl)-6-(trifluoromethyl)pyridin-2-yl)((2S,3R)-5,5-difluoro-3-methyl-2-(((5-(trifluoromethyl)pyridin-2-yl)amino)methyl)piperidin-1-yl)methanone], the IC50 in assay [1] is > 5000 nM; in assay [2], 3700 nM.

In the case of `Cc1ccc(-n2nccn2)c(C(=O)N2CC(F)(F)C[C@@H](C)[C@H]2COc2ccc(C(F)(F)F)cn2)n1` [Compound 204, ((2S,3R)-5,5-difluoro-3-methyl-2-(((5-(trifluoromethyl)pyridin-2-yl)oxy)methyl)piperidin-1-yl)(6-methyl-3-(2H-1,2,3-triazol-2-yl)pyridin-2-yl)methanone], the IC50 in assay [1] is 40 nM; in assay [2], > 5000 nM.

For `C[C@@H]1CC(F)(F)CN(C(=O)c2nn(C)cc2-c2ccc(F)cc2)[C@@H]1COc1ccc(C(F)(F)F)cn1` [Compound 205, ((2S,3R)-5,5-difluoro-3-methyl-2-(((5-(trifluoromethyl)pyridin-2-yl)oxy)methyl)piperidin-1-yl)(4-(4-fluorophenyl)-1-methyl-1H-pyrazol-3-yl)methanone], the IC50 is 52 nM in assay [1] and > 5000 nM in assay [2].

On to `C[C@@H]1CC(F)(F)CN(C(=O)c2cn(C)nc2-c2ccccc2)[C@@H]1COc1ncc(C(F)(F)F)cn1` [Compound 209], for which the 50% inhibitory concentration (IC50) in assay [1] is 280 nM; in assay [2] it was > 5000 nM.

On to `Cc1ccc(-c2ncccn2)c(C(=O)N2CC(F)(F)C[C@@H](C)[C@H]2COc2ccc(C(F)(F)F)cn2)n1` [Compound 215, ((2S,3R)-5,5-difluoro-3-methyl-2-(((5-(trifluoromethyl)pyridin-2-yl)oxy)methyl)piperidin-1-yl)(6-methyl-3-(pyrimidin-2-yl)pyridin-2-yl)methanone], for which the values for the IC50 in assay [1] and in assay [2] were 5 nM and > 5000 nM, respectively.

In the case of `C[C@@H]1CC(F)(F)CN(C(=O)c2cc(Cl)ccc2-c2nnn(C)n2)[C@@H]1COc1ccc(C(F)(F)F)cn1` [Compound 216, (5-chloro-2-(2-methyl-2H-tetrazol-5-yl)phenyl)((2S,3R)-5,5-difluoro-3-methyl-2-(((5-(trifluoromethyl)pyridin-2-yl)oxy)methyl)piperidin-1-yl)methanone], the results for the IC50 in assay [1] and in assay [2] were 4 nM and > 5000 nM, respectively.

Take `C[C@@H]1CC(F)(F)CN(C(=O)c2nn(C)cc2-c2ncc(F)cn2)[C@@H]1CNc1ncc(C(F)(F)F)cn1` [Compound 217, ((2S,3R)-5,5-difluoro-3-methyl-2-(((5-(trifluoromethyl)pyrimidin-2-yl)amino)methyl)piperidin-1-yl)(4-(5-fluoropyrimidin-2-yl)-1-methyl-1H-pyrazol-3-yl)methanone]: the IC50 is 4 nM in assay [1] and > 5000 nM in assay [2].

In the case of `C[C@@H]1CC(F)(F)CN(C(=O)c2nn(C)cc2-c2ncc(Cl)cn2)[C@@H]1CNc1ncc(C(F)(F)F)cn1` [Compound 218, (4-(5-chloropyrimidin-2-yl)-1-methyl-1H-pyrazol-3-yl)((2S,3R)-5,5-difluoro-3-methyl-2-(((5-(trifluoromethyl)pyrimidin-2-yl)amino)methyl)piperidin-1-yl)methanone], the figures for the IC50 in assay [1] and in assay [2] were 7 nM and > 5000 nM, respectively.
